The structures appear in SMILES notation.

This note sets out measurements from patent US12441959B2, “Composition containing organic ammonium salt” (MIYOSHI OIL & FAT CO., LTD., priority 2019, dated 2025).

A short description of the data set: Surface resistance measurement with high resistance meter. In kind it is physicochemical. Particulars: 0.7 g (in terms of anhydride) applied. As to the method:
Surface resistance measurements were performed on compound 1 that had not undergone emulsification adjustment and on glycerin and the emulsification composition that had already undergone emulsification adjustment. In the comparison of compound 1 that had not undergone emulsification adjustment and glycerin, 0.7 g (content in terms of anhydride) of each of the compound 1 and glycerin was applied to an artificial leather made of polyurethane, followed by using a high resistance meter (Stack TR-2 by Tokyo Electronics Co., Ltd.) to measure a surface resistance value. Further, in the comparison by the emulsified composition, 0.05 g of the emulsification compositions shown in Table 11 were each applied to an artificial leather made of polyurethane to measure a surface resistance value using a high resistance meter.
Further, 0.7 g (content in terms of anhydride) of sodium lactate was applied to an artificial leather made of polyurethane before drying the same to volatilize water. As the result, the coating surface was turned into a solid state whose surface resistance value, measured in a similar manner as above, turned out to be 2×10^8Ω; confirmed were a non-volatility of the compound 1 (lower than 1×10^8Ω) and an effect of liquidity at 25° C. (capability of evenly coating a coating object).

Take `OCC(O)CO` [glycerin]: the surface resistance value (not emulsified, liquid state at measurement) is 5×10^8 Ω.
`CC(O)C(=O)[O-].[Na+]` (centres unmarked) [sodium lactate]: the surface resistance value (dried to volatilize water, solid state) is 2×10^8 Ω.
